Here are results for 32 compounds from US20130059850A1, “AZA-INDOLE DERIVATIVES USEFUL AS MODULATORS OF FAAH” (MERCK SHARP & DOHME CORP., priority 2010, published 2013).

Experiment [1] has as its target T1, human FAAH (Fatty Acid Amide Hydrolase) (Homo sapiens, UniProt O00519).
T1 construct: The full length FAAH was subcloned into the mammalian expression vector, pcDEF.neo, using XbaI and EcoRI restriction sites; expressed in transfected cells
T1 sequence (O00519 1-579): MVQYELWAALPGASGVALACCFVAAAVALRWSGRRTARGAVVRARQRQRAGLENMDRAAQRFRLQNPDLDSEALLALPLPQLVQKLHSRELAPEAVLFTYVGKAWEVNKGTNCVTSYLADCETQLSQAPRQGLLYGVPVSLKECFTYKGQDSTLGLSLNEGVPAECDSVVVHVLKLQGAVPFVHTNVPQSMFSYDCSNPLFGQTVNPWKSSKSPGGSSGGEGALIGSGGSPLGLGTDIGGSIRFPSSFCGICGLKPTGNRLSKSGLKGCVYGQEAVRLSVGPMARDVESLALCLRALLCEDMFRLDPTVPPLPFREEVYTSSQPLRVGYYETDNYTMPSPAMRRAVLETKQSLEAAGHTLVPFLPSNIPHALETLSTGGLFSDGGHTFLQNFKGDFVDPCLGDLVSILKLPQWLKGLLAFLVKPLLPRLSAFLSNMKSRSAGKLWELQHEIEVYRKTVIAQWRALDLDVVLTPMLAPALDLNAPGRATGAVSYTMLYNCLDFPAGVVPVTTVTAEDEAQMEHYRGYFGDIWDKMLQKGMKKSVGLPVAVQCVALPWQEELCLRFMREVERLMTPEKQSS
Nature of the experiment: FAAH enzyme assay on CHO cell lysate expressing human FAAH (human LY), AAMCA fluorescent substrate. The format is biochemical. The note with it: human FAAH_CHO cell lysate. An outline of the steps: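 CHO cell lysate expressing full-length human FAAH, preincubated with compound 15 min at 22-25° C. in pH 8.0 phosphate buffer with 200 mM KCl and 0.1% fatty-acid-free BSA. 1 μM AAMCA final, 1-3 h at room temperature; 7-amino-4-methylcoumarin release read by fluorescence (Ex 360, Em 460 nm).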

Experiment [2] concerns the target T1, human FAAH (Fatty Acid Amide Hydrolase). Nature of the experiment: FAAH whole cell assay on CHO cells expressing human FAAH (human WC), AAMCA fluorescent substrate. The format is cell-based. Particulars: human FAAH_CHO whole cell. An outline of the steps:
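CHO cells stably expressing full-length human FAAH, harvested with enzyme-free dissociation and resuspended at 4×10^4 cells/assay (96-well) or 1×10^4 (384-well) in 50 mM phosphate pH 8.0, 1 mM EDTA, 200 mM KCl, 0.2% glycerol, 0.1% BSA.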

The term IC50 denotes the midpoint of a concentration-inhibition curve. For the compound `Cn1cccc2c(Sc3ccc(Cl)cc3)c(C3=CCC(O)CC3)nc1-2` (stereo not shown) [Example E5], the results for the IC50 in experiment [1] and in experiment [2] were 8.07 nM and 53.9 nM, respectively.
As to `Cn1cccc2c(Sc3ccc(Cl)cc3)c([C@H]3CC[C@H](O)CC3)nc1-2` [Example E7], the half-maximal inhibitory concentration (IC50) in experiment [1] came out at 9.92 nM; in experiment [2], 18.8 nM.
For `COc1cc(-c2nc3n(C)cccc-3c2Sc2ccc(Cl)cc2)cnc1OC` [Example E8], in that order: 12.4 nM and 72.7 nM.
For `Cn1cccc2c(Sc3ccc(Cl)cn3)c(-c3ccc4[nH]ncc4c3)nc1-2` [Example E9], in that order: 15.4 nM and 82.5 nM.
For the compound `Cn1cccc2c(Sc3ccc(Cl)cc3)c(-c3ccc(C(O)C(F)(F)F)cc3)nc1-2` (stereo not shown) [Example E10], the values for the half-maximal inhibitory concentration (IC50) in experiment [1] and in experiment [2] were 18.5 nM and 70.6 nM, respectively.
With `Cn1cccc2c(Sc3ccc(Cl)cn3)c(-c3ccc4c(c3)OCO4)nc1-2` [Example E11], the half-maximal inhibitory concentration (IC50) in experiment [1] stood at 26.6 nM; in experiment [2], 71.6 nM.
Turning to `OCCn1cccc2c(Sc3ccc(Cl)cc3)c(-c3ccc4c(c3)OCO4)nc1-2` [Example E12], the IC50 in experiment [1] stood at 28.8 nM; in experiment [2], 76.7 nM.
`CCn1cccc2c(Sc3ccc(Cl)cc3)c(-c3ccc4c(c3)OCO4)nc1-2` [Example E13]: the results for the 50% inhibitory concentration (IC50) in experiment [1] and in experiment [2] were 48.9 nM and 160 nM, respectively.
The matching figures for `Cn1cccc2c(Sc3ccc(Cl)cn3)c(-c3ccc(C(O)C(F)(F)F)cc3)nc1-2` (stereo not shown) [Example E14]: 116 nM and 925 nM.
As to `Cn1cccc2c(Sc3ccc(Cl)cn3)c([C@H]3CC[C@H](O)CC3)nc1-2` [Example E16], the IC50 in experiment [1] is 2030 nM; in experiment [2], 8490 nM.
For `OCCn1cccc2c(Sc3ccc(Cl)cn3)c(-c3ccc4c(c3)OCCO4)nc1-2` [Example E17], in that order: 168 nM and 1300 nM.
For `Cn1cccc2c(Sc3ccc(Cl)cc3)c(C(=O)Nc3ccc4c(c3)OCCO4)nc1-2` [Example E18], in that order: 171 nM and 1340 nM.
For `Cn1cccc2c(Sc3ccc(Cl)cn3)c(C3=CCC(O)CC3)nc1-2` (stereo not shown) [Example E19], in that order: 181 nM and 1210 nM.
For the compound `OCCn1cccc2c(Sc3ccc(Cl)cn3)c(-c3ccc4c(c3)OCO4)nc1-2` [Example E20], the 50% inhibitory concentration (IC50) in experiment [1] is 289 nM; in experiment [2], 1040 nM.
For `NC(=O)CCn1cccc2c(Sc3ccc(Cl)cc3)c(-c3ccc4c(c3)OCO4)nc1-2` [Example E21], in that order: 317 nM and 1390 nM.
For `Clc1ccc(Sc2c3cccn(CCn4cccc4)c-3nc2-c2ccc3c(c2)OCO3)cc1` [Example E22], in that order: 497 nM and 3220 nM.
The matching figures for `Cn1cccc2c(Sc3ccc(Cl)cn3)c([C@H]3CC[C@@H](O)CC3)nc1-2` [Example E23]: 148 nM and 252 nM.
`Cn1c(-c2ccc(C(O)C(F)(F)F)cc2)c(Sc2ccc(Cl)cc2)c2cccnc21` (stereo not shown) [Example E33]: the half-maximal inhibitory concentration (IC50) in experiment [1] is 106 nM; in experiment [2], 186 nM.
The matching figures for `Cn1c2ncccc2c(Sc2ccc(Cl)cc2)c1[C@H]1CC[C@H](O)CC1` [Example E34]: 7.08 nM and 9.93 nM.
The matching figures for `OCCn1c(-c2ccc3c(c2)OCO3)c(Sc2ccc(Cl)cc2)c2cccnc21` [Example E35]: 31.7 nM and 115 nM.
Consider `COc1ccc(Cc2[nH]c3ncccc3c2Sc2ccc(Cl)cc2)cc1` [Example F2, 3-[(4-chlorophenyl)sulfanyl]-2-(4-methoxybenzyl)-1H-pyrrolo[2,3-b]pyridine], for which the 50% inhibitory concentration (IC50) in experiment [1] was determined as 52.9 nM; in experiment [2] it was 151 nM.
For `N#Cc1ccccc1-c1[nH]c2ncccc2c1Sc1ccc(Cl)cc1` [Example F8], in that order: 12.2 nM and 69.4 nM.
Turning to `Clc1ccc(Sc2c(-c3ccccn3)[nH]c3ncccc23)cc1` [Example F9], the half-inhibitory concentration (IC50) in experiment [1] was determined as 339 nM; in experiment [2] it was 1110 nM.
The matching figures for `Clc1ccc(Sc2c(-c3ccc4[nH]ncc4c3)[nH]c3ncccc23)cc1` [Example I3, 5-{3-[(4-chlorophenyl)sulfanyl]-1H-pyrrolo[2,3-b]pyridin-2-yl}-1H-indazole]: 2.15 nM and 10.7 nM.
With `OC(c1ccccc1)c1[nH]c2ncccc2c1Sc1ccc(Cl)cc1` (stereo not shown) [Example J4, {3-[(4-chlorophenyl)sulfanyl]-1H-pyrrolo[2,3-b]pyridin-2-yl}(phenyl)methanol], the results for the 50% inhibitory concentration (IC50) in experiment [1] and in experiment [2] were 5870 nM and 10000 nM, respectively.
Consider `Clc1ccc(Sc2c(CNCc3ccccc3)[nH]c3ncccc23)cc1` [Example J6, N-benzyl-1-{3-[(4-chlorophenyl)sulfanyl]-1H-pyrrolo[2,3-b]pyridin-2-yl}methanamine], for which the half-maximal inhibitory concentration (IC50) in experiment [1] is 132 nM; in experiment [2], 400 nM.
The matching figures for `Clc1ccc(Sc2c(CNC3CCOCC3)[nH]c3ncccc23)cc1` [Example J7]: 260 nM and 1140 nM.
For `OC1CCN(Cc2[nH]c3ncccc3c2Sc2ccc(Cl)cc2)CC1` [Example J8], in that order: 80.4 nM and 433 nM.
With `OC(c1ccc2c(c1)OCO2)c1[nH]c2ncccc2c1Sc1ccc(Cl)cc1` (stereo not shown) [Example J9], the IC50 in experiment [1] turned out to be 2600 nM; in experiment [2], 3330 nM.
The matching figures for `COc1ccc(C(O)c2[nH]c3ncccc3c2Sc2ccc(Cl)cc2)cc1` (stereo not shown) [Example J10]: 818 nM and 8410 nM.
Consider `CC(C)C(O)c1[nH]c2ncccc2c1Sc1ccc(Cl)cc1` (stereo not shown) [Example J11], for which the figures for the IC50 in experiment [1] and in experiment [2] were 695 nM and 5890 nM, respectively.
For `CC1(C)CC(NCc2[nH]c3ncccc3c2Sc2ccc(Cl)cc2)CC(C)(C)O1` [Example J12], in that order: 59 nM and 202 nM.
